Some results are limits rather than exact numbers.

This is an account of results in US5597845A, “Substituted alkyldiamine derivatives” (Merrell Pharmaceuticals Inc., priority 1994, dated 1997).

Test [1] deals with T1, human jejunal NK2 receptor (Homo sapiens, UniProt P21452).
T1 construct: expressed in transfected cells; host or cells: HSKR-1 cells (mouse 3T3 fibroblasts)
T1 sequence (P21452 1-398): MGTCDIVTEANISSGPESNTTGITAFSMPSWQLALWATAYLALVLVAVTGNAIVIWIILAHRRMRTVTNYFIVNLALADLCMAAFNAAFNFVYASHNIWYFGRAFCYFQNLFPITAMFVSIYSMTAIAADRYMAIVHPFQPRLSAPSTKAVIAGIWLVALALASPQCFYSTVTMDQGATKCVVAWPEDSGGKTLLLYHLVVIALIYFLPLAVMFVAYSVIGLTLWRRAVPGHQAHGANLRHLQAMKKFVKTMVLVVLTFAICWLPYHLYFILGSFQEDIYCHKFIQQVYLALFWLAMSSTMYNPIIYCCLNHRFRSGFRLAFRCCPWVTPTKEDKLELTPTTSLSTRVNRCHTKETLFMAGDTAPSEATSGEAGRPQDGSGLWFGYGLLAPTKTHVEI
Briefly: Antagonism of iodinated tachykinin binding: NK2 receptor affinity in HSKR-1 cells (125 iodohistidyl-1-neurokinin A). The conditions noted are these: HSKR-1 cells (mouse 3T3 fibroblasts expressing human jejunal NK2 receptor); 125I-neurokinin A 0.1 nM; 2 hr room temperature; mean of several experiments. As to the method:
(§1) The NK1 receptor affinity of proposed tachykinin antagonists was evaluated in guinea pig lungs (Keystone Biologicals, Cleveland, Ohio) and affinity for the NK2 receptor evaluated in HSKR-1 cells (which are mouse 3T3 fibroblasts expressing the human jejunal NK2 receptor). Tissues or cells were homogenized with a Polytron in 15 volumes of 50 mM Tris-HCl buffer (pH 7.4, 4° C.) and centrifuged. The pellet was resuspended in Tris-HCl buffer and was centrifuged; the pellet was washed twice by resuspension. The final pellet was resuspended at a concentration of 40 mg/ml for tissues and 20 mg/ml for cells in incubation buffer and remained at room temperature for at least 15 min prior to use. Receptor binding was initiated by addition of 250 ul membrane preparation in duplicate to 0.1 nM of the following radioligands: ^125 I-Bolton Hunter Lys-3 labeled substance P and ^125 iodohistidyl-1-neurokinin A; in a final volume of 500 ul of buffer containing 50 mM Tris-HCl (pH 7.4 at room temperature), 0.1% bovine serum albumin, 2 mM MnCl2, 40 ug/ml bacitracin, 4 μg/ml leupeptin and chymostatin, 1 μM thiorphan and various doses of the putative tachykinin antagonists. Incubations were performed at room temperature for 90 min (NK1 receptor assays) or 2 hr (NK2 receptor assay); binding was terminated by addition of 50 mM Tris-HCl buffer (pH 7.4, 4° C.) and filtration under vacuum through GF/B filters presoaked with 0.1% polyethyleneimine (NK, receptor assays) or 0.5% bovine serum albumin (NK2 receptor assay). Filter bound radioactivity was quantitated in a gamma counter. Nonspecific binding was defined as binding in the presence of 1 μM substance P or neurokinin A. Specific binding was calculated by subtracting nonspecific binding from total binding. Competition of iodinated SP or NKA binding by test compounds or standards was expressed as a percentage of this maximum competition. IC50 values (concentration required to inhibit 50% of receptor binding) were generated for each of the test compounds by nonlinear regression using an iterative curve fitting program (GraphPAD Inplot, San Diego, Calif.).
(§2) IC50 values for some of the compounds of the present invention are found in Table 1 and represent the mean of several experiments.

A further test concerns the target T2, NK1 receptor (Cavia porcellus, UniProt P30547).
T2 construct: evaluated in guinea pig lungs; tissue Keystone Biologicals, Cleveland, Ohio; host or cells: guinea pig lung
Briefly: Antagonism of iodinated tachykinin binding: NK1 receptor affinity in guinea pig lungs (125I-Bolton Hunter Lys-3 labeled substance P). The following applies: 125I-substance P 0.1 nM, 90 min room temperature, mean of several experiments. How it is done: as §1, §2

T2 sequence (P30547 whole entry): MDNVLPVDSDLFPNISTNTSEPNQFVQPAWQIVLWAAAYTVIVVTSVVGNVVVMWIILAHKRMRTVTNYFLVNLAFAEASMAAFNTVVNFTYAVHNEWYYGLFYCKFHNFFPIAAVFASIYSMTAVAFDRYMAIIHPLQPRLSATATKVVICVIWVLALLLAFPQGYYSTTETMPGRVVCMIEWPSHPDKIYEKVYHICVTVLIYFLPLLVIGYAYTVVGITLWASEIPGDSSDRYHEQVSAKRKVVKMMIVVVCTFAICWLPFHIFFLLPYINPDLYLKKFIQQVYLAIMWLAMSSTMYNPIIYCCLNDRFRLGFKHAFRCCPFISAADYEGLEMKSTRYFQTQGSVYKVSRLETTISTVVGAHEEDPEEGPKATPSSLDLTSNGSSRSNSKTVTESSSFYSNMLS

By IC50 is commonly meant the point on the concentration scale where inhibition reaches its midpoint. A higher IC50 goes with weaker potency. On to `CC(Cc1c[nH]c2ccccc12)NCCN[C@@H](Cc1ccccc1)C(=O)N(C)Cc1ccccc1` (mixture of isomers) [Compound No. 11, (S)-N-Benzyl-N-methyl-2-[[(R and S)-2-(1H-indol-3-yl)-1-methyl-ethylamino]-ethylamino]-3-phenyl-propionamide], for which the IC50 is 131 nM in test [1] and 953 nM at NK1 receptor.
In the case of `COC(=O)[C@H](Cc1c[nH]c2ccccc12)NCCN[C@@H](Cc1ccc2ccccc2c1)C(=O)N(C)Cc1ccc(Cl)c(Cl)c1` [Compound No. 2, (S)-N-(3,4-Dichlorobenzyl)-N-methyl-2-[[(S)-2-(1H-indol-3-yl)-1-carboxymethyl-ethylamino]-ethylamino]-3-(naphth-2-yl)-propionamide], the values for the IC50 (in test [1]; on NK1 receptor) were 632 nM and 61.5 nM, respectively.
Take `COC(=O)[C@@H](Cc1c[nH]c2ccccc12)NCCN[C@@H](Cc1ccccc1)C(=O)N(C)Cc1ccccc1` [Compound No. 3, (S)-N-Benzyl-N-methyl-2-[[(R)-2-(1H-indol-3-yl)-1-carboxymethyl-ethylamino]-ethylamino]-3-phenyl-propionamide]: the IC50 is 215 nM in test [1] and 929 nM at NK1 receptor.
For the compound `COC(=O)[C@H](Cc1c[nH]c2ccccc12)NCCN[C@@H](Cc1ccccc1)C(=O)N(C)Cc1ccccc1OC` [Compound No. 4, (S)-N-(2-Methoxybenzyl)-N-methyl-2-[[(S)-2-(1H-indol-3-yl)-1-carboxymethyl-ethylamino]-ethylamino]-3-phenyl-propionamide], the IC50 was 271 nM in test [1] and 146 nM on NK1 receptor.
On to `COC(=O)[C@H](Cc1c[nH]c2ccccc12)NCCN[C@@H](Cc1ccc2ccccc2c1)C(=O)N(C)Cc1ccccc1` [Compound No. 5], for which the IC50 in test [1] is 284 nM; at NK1 receptor, 78.1 nM.
As to `COC(=O)[C@H](Cc1c[nH]c2ccccc12)NCCN[C@@H](Cc1ccccc1)C(=O)N(C)Cc1ccccc1` [Compound No. 6, (S)-N-Benzyl-N-methyl-2-[[(S)-2-(1H-indol-3-yl)-1-carboxymethyl-ethylamino]-ethylamino]-3-phenyl-propionamide], the IC50 in test [1] came to 228 nM; on NK1 receptor, 294 nM.
Consider `CN(Cc1ccccc1)C(=O)[C@H](Cc1ccccc1)NCCN[C@@H](Cc1c[nH]c2ccccc12)C(N)=O` [Compound No. 7, (S)-N-Benzyl-N-methyl-2-[[(S)-2-(1H-indol-3-yl)-1-carboxylic acid amide-ethylamino]-ethylamino]-3-phenyl-propionamide], for which the IC50 is 211 nM in test [1] and 472 nM at NK1 receptor.
For the compound `COC(=O)[C@H](Cc1c[nH]c2ccccc12)NCCN[C@@H](Cc1ccccc1)C(=O)N(C)Cc1cc(OC)c(OC)c(OC)c1` [Compound No. 8, (S)-N-(3,4,5-Trimethoxybenzyl)-N-methyl-2-[[(S)-2-(1H-indol-3-yl)-1-carboxymethyl-ethylamino]ethylamino]-3-phenyl-propionamide], the figures for the IC50 (in test [1]; on NK1 receptor) were 1990 nM and 711 nM, respectively.
Turning to `CN(Cc1ccccc1)C(=O)[C@H](Cc1ccccc1)NCCNCCc1c[nH]c2ccccc12` [Compound No. 9], the IC50 worked out at 114 nM in test [1] and 778 nM at NK1 receptor.
For the compound `COC(=O)[C@H](Cc1c[nH]c2ccccc12)NCCN[C@@H](Cc1ccccc1)CN(C)C(=O)c1cc(OC)c(OC)c(OC)c1` [Compound No. 10, N-Methyl-N-[(S)-2-[[(S)-2-(1H-indol-3-yl)-1-carboxymethyl-ethylamino]-ethylamino]-3-phenyl-propyl]-(3,4,5-trimethoxy)benzamide], the values for the IC50 (in test [1]; on NK1 receptor) were 2560 nM and 631 nM, respectively.
Regarding `COC(=O)[C@H](Cc1ccccc1)NCCN[C@@H](Cc1ccccc1)C(=O)N(C)Cc1ccccc1` [Compound No. 12, (S)-N-Benzyl-N-methyl-2-[[(S)-2-phenyl-1-carboxymethyl-ethylamino]-ethylamino]-3-phenyl-propionamide], the IC50 was 1440 nM in test [1] and 1430 nM at NK1 receptor.
For the compound `COC(=O)[C@@H](NCCN[C@@H](Cc1ccccc1)C(=O)N(C)Cc1ccccc1)c1ccccc1` [Compound No. 13, (S)-N-Benzyl-N-methyl-2-[[(S)-1-phenyl-1-carboxymethyl-methylamino]-ethylamino]-3-phenyl-propionamide], the IC50 in test [1] amounted to 4710 nM; on NK1 receptor, 2410 nM.
For the compound `COC(=O)[C@H](Cc1c[nH]c2ccccc12)NCCN[C@@H](Cc1ccccc1)CN(C)C(=O)c1ccccc1` [Compound No. 14, N-Methyl-N-[(S)-2-[[(S)-2-(1H-indol-3-yl)-1-carboxymethyl-ethylamino]-ethylamino]-3-phenyl-propyl]-benzamide], the IC50 in test [1] was 1220 nM; at NK1 receptor, 10000 nM.
For the compound `COC(=O)[C@H](Cc1c[nH]c2ccccc12)NCCN(C(=O)OC(C)(C)C)[C@@H](Cc1ccc2ccccc2c1)C(=O)N(C)Cc1ccccc1` [Compound No. 15, (S)-N-Benzyl-N-methyl-2-[[(S)-2-(1H-indol-3-yl)-1-carboxymethyl-ethylamino]-N'-(t-butoxycarbonyl)ethylamino]-3-(naphth-2-yl)-propionamide], the IC50 in test [1] was 2560 nM; at NK1 receptor, more than 10000 nM.
Taken in the same sequence, the figures for `CN(Cc1ccccc1)C(=O)[C@H](Cc1ccccc1)NCCN[C@@H](Cc1c[nH]c2ccccc12)C(=O)O` [Compound No. 16, (S)-N-Benzyl-N-methyl-2-[[(S)-2-(1H-indol-3-yl)-1-carboxy-ethylamino]-ethylamino]-3-phenyl-propionamide] were 1580 nM and 3800 nM.
